Experimental findings from US20240261283A1, “PHARMACEUTICAL PREPARATION FOR PREVENTING OR TREATING PULMONARY FIBROSIS” (J2H BIOTECH INC., priority 2021, published 2024) are described below.

In test [1] the test system is pulmonary fibrosis mouse model induced by radiation. Put plainly: Radiation-induced pulmonary fibrosis mouse model, collagen deposition by Masson's trichrome staining of lung tissue. Format: in vivo, C57BL/6 mice. As to conditions: radiation 90 Gy to chest; oral, twice a day, 14 days; nintedanib 30 mg/kg (G2), Chemical Formula 1 compound 10 mg/kg (G3), combination 10 + 30 mg/kg (G4); compared to vehicle group (G1). As for the experimental part:
The test compound was administered orally to C57BL/6 male 8-week-old mice, and 1 hour later, radiation (90 Gy, 4 mm collimator) was irradiated to the chest at a size of 3 mm. Afterwards, test compounds were administered orally twice a day for 14 days, and then an autopsy was performed. Mouse lung tissue was fixed with 10% formalin, paraffin sections were made, and the degree of collagen deposition within the tissue was confirmed using trichrome staining.
According to Reference Example 1, test compounds were administered to a mouse model of radiation-induced pulmonary fibrosis and an autopsy was performed. Mouse lung tissue was fixed in 10% neutral formalin for one day and paraffin sections were made. To remove paraffin around the tissue, it was sequentially reacted in xylene, 95, 90, and 70% ethanol solutions for 5 minutes each. To activate the tissue antigen, the tissue was immersed in a 0.1 M citric acid (pH 6.0) solution and boiled for 20 minutes. Then, it was sequentially reacted with Bouin's solution for 1 minute, Weigert's hematoxylin for 10 minutes, Phosphotunstic/phosphomolydic acid for 10 minutes, aniline blue for 5 minutes, and 1% acetic acid for 1 minute. Next, after a dehydration process, it was sealed with a cover glass and observed under a microscope (Carl Zeiss Vision).

The subject of test [2] is bleomycin-induced pulmonary fibrosis mouse model. Put plainly: Bleomycin-induced pulmonary fibrosis mouse model, hydroxyproline in lung tissue lysate by ELISA. Format: in vivo, C57BL/6N mice. Conditions: oral, twice a day, 14 days. As for the experimental part:
C57BL/6N mice were anesthetized using isoflurane. Afterwards, an incision was made in the center of the neck to expose the airway. Bleomycin dissolved in physiological saline injection solution was slowly injected at 1.25 mg/kg into the exposed upper respiratory tract using an insulin syringe. Afterwards, the insulin syringe was removed and the incision was sutured. Afterwards, test compounds were administered orally twice a day for 14 days, and then an autopsy was performed. The mouse's left lung tissue was fixed with 10% formalin, paraffin sections were made, and the degree of lung fibrosis was evaluated using H&E staining. The right lung was tissue lysed for qPCR and hydroxyproline measurements. Afterwards, it was used in each experiment to evaluate the expression of lung fibrosis-related genes and the degree of collagen deposition in the lung.
According to Reference Example 2, test compounds were administered to a mouse model of bleomycin-induced pulmonary fibrosis and an autopsy was performed. The left lung tissue of the mouse was fixed in 10% neutral formalin for one day and paraffin sections were made. To remove paraffin around the tissue, it was sequentially reacted in xylene, 95, 90, and 70% ethanol solutions for 5 minutes each. […] The other half of the tissue was lysed and the lysate was analyzed using a hydroxyproline ELISA kit.
For orientation: ELISA stands for enzyme-linked immunosorbent assay.

The structures appear in SMILES notation.

For `C[C@@H]1CN(c2ccc(S(C)(=O)=O)cc2F)CCN1c1nccc(C(=O)N[C@H]2C3CC4CC2C[C@](O)(C4)C3)n1` [compound of Chemical Formula 1, 2-((R)-4-(2-fluoro-4-(methylsulfonyl)phenyl)-2-methylpiperazin-1-yl)-N-((1R,2s,3S,5S,7S)-5-hydroxyadamantan-2-yl)pyrimidine-4-carboxamide], in test [1], the “anti-fibrotic effect of suppressing collagen deposition (trichrome staining, FIGS. 1 and 2)” value was “significantly inhibits collagen deposition”. For the same molecule, in test [2] (bleomycin-induced model, doses as in Table 2), the “collagen deposition, primary evaluation index of pulmonary fibrosis (conclusion of Example 2)” value is “significantly inhibits collagen deposition”.

In the case of `COC(=O)c1ccc2c(c1)NC(=O)/C2=C(\Nc1ccc(N(C)C(=O)CN2CCN(C)CC2)cc1)c1ccccc1` [nintedanib], in test [1], the “anti-fibrotic effect of suppressing collagen deposition (trichrome staining, FIGS. 1 and 2)” value is recorded as “high significance”. The “expression of hydroxyproline in lung tissue (FIG. 5)” value in test [2] (bleomycin 1.25 mg/kg, Chemical Formula 1 compound 30, 100, 200 mg/kg (G3-G5), combination 60 + 30 mg/kg (G6), nintedanib 60 mg/kg (G7), compared to vehicle group (G2)) is given as “significant differences were confirmed in all administration groups except the nintedanib single administration group (G7)”.
